Measurements as given in US6936585B2, “Corticotropin releasing factor 2 receptor agonists” (priority 2002, dated 2005).
Peptide text beside a SMILES is read from it.

Assays:
CRF1R = biological target: T1, CRF1R (Homo sapiens, UniProt P34998); assay: CRF1R agonist activation (EC50 / Emax), called comparative CRF binding; assay type: cell-based; conditions: for Emax: read-out: CRF1R Emax; for EC50: read-out: CRF1R EC50
T1 sequence (P34998 24-415): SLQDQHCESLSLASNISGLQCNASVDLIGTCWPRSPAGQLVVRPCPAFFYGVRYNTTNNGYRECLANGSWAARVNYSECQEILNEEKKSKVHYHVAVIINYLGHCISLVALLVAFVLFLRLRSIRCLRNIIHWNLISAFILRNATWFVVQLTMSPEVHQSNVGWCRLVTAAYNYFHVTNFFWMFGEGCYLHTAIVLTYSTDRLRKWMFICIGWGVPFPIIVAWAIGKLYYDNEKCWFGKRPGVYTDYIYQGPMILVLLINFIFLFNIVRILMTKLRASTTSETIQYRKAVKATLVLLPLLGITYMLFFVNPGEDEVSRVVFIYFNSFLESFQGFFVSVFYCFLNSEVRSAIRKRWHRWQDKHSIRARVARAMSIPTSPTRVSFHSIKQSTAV
Outline: (§1)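 Receptor-expressing cells are contacted with test peptide or the vehicle it is dissolved in. Lysates are then assayed for cAMP, or expression of a CRE-coupled reporter is quantitated. Engineered cells carrying receptor-G-protein fusions may replace full-length receptors.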

CRF2R = biological target: T2, CRF2R (Homo sapiens, UniProt Q13324); assay: CRF2R agonist activation (EC50 / Emax), called comparative CRF binding; assay type: cell-based; conditions: for Emax: read-out: CRF2R Emax; for EC50: read-out: CRF2R EC50
T2 sequence (Q13324 1-411): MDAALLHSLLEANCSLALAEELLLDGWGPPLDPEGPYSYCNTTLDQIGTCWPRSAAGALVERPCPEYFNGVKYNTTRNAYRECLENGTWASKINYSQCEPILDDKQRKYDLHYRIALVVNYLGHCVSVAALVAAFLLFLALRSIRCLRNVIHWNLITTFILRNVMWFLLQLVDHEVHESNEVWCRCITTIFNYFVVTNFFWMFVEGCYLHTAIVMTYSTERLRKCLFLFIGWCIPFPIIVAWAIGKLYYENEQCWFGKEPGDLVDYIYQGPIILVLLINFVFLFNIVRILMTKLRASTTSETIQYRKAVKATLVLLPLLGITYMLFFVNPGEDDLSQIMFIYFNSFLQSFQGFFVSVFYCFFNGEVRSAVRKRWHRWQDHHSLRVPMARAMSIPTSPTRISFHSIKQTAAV
Outline: as §1

Row | Structure (SMILES) | Emax (CRF1R) | Emax (CRF2R) | EC50 (CRF1R) | EC50 (CRF2R)
1 | CC[C@H](C)[C@H](NC(=O)[C@H](C)NC(=O)[C@H](CC(N)=O)NC(=O)[C@H](CCC(N)=O)NC(=O)[C@H](CCC(=O)O)NC(=O)[C@H](C)NC(=O)[C@H](CCCNC(=N)N)NC(=O)[C@H](CCC(=O)O)NC(=O)[C@H](CCCNC(=N)N)NC(=O)[C@H](CCC(N)=O)NC(=O)[C@H](CO)NC(=O)[C@H](CCC(N)=O)NC(=O)[C@@H](NC(=O)[C@H](CCCNC(=N)N)NC(=O)[C@H](C)NC(=O)[C@H](CC(C)C)NC(=O)[C@H](CCC(=O)O)NC(=O)[C@H](CC(C)C)NC(=O)[C@H](CC(C)C)NC(=O)[C@@H](NC(=O)[C@H](CCCNC(=N)N)NC(=O)[C@H](CC(C)C)NC(=O)[C@H](CC(C)C)NC(=O)[C@H](Cc1ccc(O)cc1)NC(=O)[C@H](CC(C)C)NC(=O)[C@@H]1CCCN1C(=O)[C@H](CC(C)C)NC(=O)[C@H](CC(=O)O)NC(=O)[C@@H](NC(=O)[C@H](CO)NC(=O)[C@H](CC(C)C)NC(=O)[C@H](CO)NC(=O)[C@@H]1CCCN1C(=O)[C@H](CC(N)=O)NC(=O)[C@@H](N)CC(=O)O)[C@@H](C)CC)[C@@H](C)O)[C@@H](C)O)C(=O)N[C@H](C(=O)N[C@@H](Cc1ccccc1)C(=O)N[C@@H](C)C(=O)N[C@@H](CO)C(=O)N[C@H](C(N)=O)C(C)C)[C@@H](C)CC [compound 177] (H-DNPSLSIDLPLYLLRTLLELARTQSQRERAEQNAIIFASV-NH2; N-terminus assumed) | 69.2% | 97.7% | – | –
2 | CC[C@H](C)[C@H](NC(=O)[C@H](C)NC(=O)[C@H](CC(N)=O)NC(=O)[C@H](CCC(N)=O)NC(=O)[C@H](CCC(=O)O)NC(=O)[C@H](C)NC(=O)[C@H](CCCNC(=N)N)NC(=O)[C@H](CCC(=O)O)NC(=O)[C@H](CCCNC(=N)N)NC(=O)[C@H](CCC(N)=O)NC(=O)[C@H](CO)NC(=O)[C@H](CCC(N)=O)NC(=O)[C@@H](NC(=O)[C@H](CCCNC(=N)N)NC(=O)[C@H](C)NC(=O)[C@H](CC(C)C)NC(=O)[C@H](CCC(=O)O)NC(=O)[C@H](CC(C)C)NC(=O)[C@H](CC(C)C)NC(=O)[C@@H](NC(=O)[C@H](CCCNC(=N)N)NC(=O)[C@H](CC(C)C)NC(=O)[C@H](CC(C)C)NC(=O)[C@H](Cc1ccccc1)NC(=O)[C@H](CC(C)C)NC(=O)[C@@H]1CCCN1C(=O)[C@H](CC(C)C)NC(=O)[C@H](CC(=O)O)NC(=O)[C@@H](NC(=O)[C@H](CO)NC(=O)[C@H](CC(C)C)NC(=O)[C@H](CO)NC(=O)[C@@H]1CCCN1C(=O)[C@H](CC(N)=O)NC(=O)[C@@H](N)CC(=O)O)[C@@H](C)CC)[C@@H](C)O)[C@@H](C)O)C(=O)N[C@H](C(=O)N[C@@H](Cc1ccccc1)C(=O)N[C@@H](C)C(=O)N[C@@H](CO)C(=O)N[C@H](C(N)=O)C(C)C)[C@@H](C)CC [compound 178] (H-DNPSLSIDLPLFLLRTLLELARTQSQRERAEQNAIIFASV-NH2; N-terminus assumed) | 55.7% | 96.5% | – | –
3 | CC[C@H](C)[C@H](NC(=O)[C@H](C)NC(=O)[C@H](CC(N)=O)NC(=O)[C@H](CCC(N)=O)NC(=O)[C@H](CCC(=O)O)NC(=O)[C@H](C)NC(=O)[C@H](CCCNC(=N)N)NC(=O)[C@H](CCC(=O)O)NC(=O)[C@H](CCCNC(=N)N)NC(=O)[C@H](CCC(N)=O)NC(=O)[C@H](CO)NC(=O)[C@H](CCC(N)=O)NC(=O)[C@@H](NC(=O)[C@H](CCCNC(=N)N)NC(=O)[C@H](C)NC(=O)[C@H](CC(C)C)NC(=O)[C@H](CCC(=O)O)NC(=O)[C@H](CC(C)C)NC(=O)[C@H](CC(C)C)NC(=O)[C@@H](NC(=O)[C@H](CCCNC(=N)N)NC(=O)[C@H](CC(C)C)NC(=O)[C@H](CC(C)C)NC(=O)[C@H](Cc1c[nH]cn1)NC(=O)[C@H](CC(C)C)NC(=O)[C@@H]1CCCN1C(=O)[C@H](CC(C)C)NC(=O)[C@H](CC(=O)O)NC(=O)[C@@H](NC(=O)[C@H](CO)NC(=O)[C@H](CC(C)C)NC(=O)[C@H](CO)NC(=O)[C@@H]1CCCN1C(=O)[C@H](CC(N)=O)NC(=O)[C@@H](N)CC(=O)O)[C@@H](C)CC)[C@@H](C)O)[C@@H](C)O)C(=O)N[C@H](C(=O)N[C@@H](Cc1ccccc1)C(=O)N[C@@H](C)C(=O)N[C@@H](CO)C(=O)N[C@H](C(N)=O)C(C)C)[C@@H](C)CC [compound 179] (H-DNPSLSIDLPLHLLRTLLELARTQSQRERAEQNAIIFASV-NH2; N-terminus assumed) | 78.9% | 92.5% | – | –
4 | CC[C@H](C)[C@H](NC(=O)[C@H](C)NC(=O)[C@H](CC(N)=O)NC(=O)[C@H](CCC(N)=O)NC(=O)[C@H](CCC(=O)O)NC(=O)[C@H](C)NC(=O)[C@H](CCCNC(=N)N)NC(=O)[C@H](CCC(=O)O)NC(=O)[C@H](CCCNC(=N)N)NC(=O)[C@H](CCC(N)=O)NC(=O)[C@H](CO)NC(=O)[C@H](CCC(N)=O)NC(=O)[C@@H](NC(=O)[C@H](CCCNC(=N)N)NC(=O)[C@H](C)NC(=O)[C@H](CC(C)C)NC(=O)[C@H](CCC(=O)O)NC(=O)[C@H](CC(C)C)NC(=O)[C@H](CC(C)C)NC(=O)[C@@H](NC(=O)[C@H](CCCNC(=N)N)NC(=O)[C@H](CC(C)C)NC(=O)[C@H](CC(C)C)NC(=O)[C@H](CC(C)C)NC(=O)[C@H](Cc1ccccc1)NC(=O)[C@@H]1CCCN1C(=O)[C@H](CC(C)C)NC(=O)[C@H](CC(=O)O)NC(=O)[C@@H](NC(=O)[C@H](CO)NC(=O)[C@H](CC(C)C)NC(=O)[C@H](CO)NC(=O)[C@@H]1CCCN1C(=O)[C@H](CC(N)=O)NC(=O)[C@@H](N)CC(=O)O)[C@@H](C)CC)[C@@H](C)O)[C@@H](C)O)C(=O)N[C@H](C(=O)N[C@@H](Cc1ccccc1)C(=O)N[C@@H](C)C(=O)N[C@@H](CO)C(=O)N[C@H](C(N)=O)C(C)C)[C@@H](C)CC [compound 180] (H-DNPSLSIDLPFLLLRTLLELARTQSQRERAEQNAIIFASV-NH2; N-terminus assumed) | 99.3% | 95.7% | 125 nM | 3.14 nM
5 | CC[C@H](C)[C@H](NC(=O)[C@H](C)NC(=O)[C@H](CC(N)=O)NC(=O)[C@H](CCC(N)=O)NC(=O)[C@H](CCC(=O)O)NC(=O)[C@H](C)NC(=O)[C@H](CCCNC(=N)N)NC(=O)[C@H](CCC(=O)O)NC(=O)[C@H](CCCNC(=N)N)NC(=O)[C@H](CCC(N)=O)NC(=O)[C@H](CO)NC(=O)[C@H](CCC(N)=O)NC(=O)[C@@H](NC(=O)[C@H](CCCNC(=N)N)NC(=O)[C@H](C)NC(=O)[C@H](CC(C)C)NC(=O)[C@H](CCC(=O)O)NC(=O)[C@H](CC(C)C)NC(=O)[C@H](CC(C)C)NC(=O)[C@@H](NC(=O)[C@H](CCCNC(=N)N)NC(=O)[C@H](CC(C)C)NC(=O)[C@H](CC(C)C)NC(=O)[C@@H](NC(=O)[C@H](Cc1ccccc1)NC(=O)[C@@H]1CCCN1C(=O)[C@H](CC(C)C)NC(=O)[C@H](CC(=O)O)NC(=O)[C@@H](NC(=O)[C@H](CO)NC(=O)[C@H](CC(C)C)NC(=O)[C@H](CO)NC(=O)[C@@H]1CCCN1C(=O)[C@H](CC(N)=O)NC(=O)[C@@H](N)CC(=O)O)[C@@H](C)CC)[C@@H](C)CC)[C@@H](C)O)[C@@H](C)O)C(=O)N[C@H](C(=O)N[C@@H](Cc1ccccc1)C(=O)N[C@@H](C)C(=O)N[C@@H](CO)C(=O)N[C@H](C(N)=O)C(C)C)[C@@H](C)CC [compound 181] (H-DNPSLSIDLPFILLRTLLELARTQSQRERAEQNAIIFASV-NH2; N-terminus assumed) | 100% | 97.8% | – | –
6 | CC[C@H](C)[C@H](NC(=O)[C@H](C)NC(=O)[C@H](CC(N)=O)NC(=O)[C@H](CCC(N)=O)NC(=O)[C@H](CCC(=O)O)NC(=O)[C@H](C)NC(=O)[C@H](CCCNC(=N)N)NC(=O)[C@H](CCC(=O)O)NC(=O)[C@H](CCCNC(=N)N)NC(=O)[C@H](CCC(N)=O)NC(=O)[C@H](CO)NC(=O)[C@H](CCC(N)=O)NC(=O)[C@@H](NC(=O)[C@H](CCCNC(=N)N)NC(=O)[C@H](C)NC(=O)[C@H](CC(C)C)NC(=O)[C@H](CCC(=O)O)NC(=O)[C@H](CC(C)C)NC(=O)[C@H](CC(C)C)NC(=O)[C@@H](NC(=O)[C@H](CCCNC(=N)N)NC(=O)[C@H](CC(C)C)NC(=O)[C@H](CC(C)C)NC(=O)[C@H](CCC(N)=O)NC(=O)[C@H](Cc1ccccc1)NC(=O)[C@@H]1CCCN1C(=O)[C@H](CC(C)C)NC(=O)[C@H](CC(=O)O)NC(=O)[C@@H](NC(=O)[C@H](CO)NC(=O)[C@H](CC(C)C)NC(=O)[C@H](CO)NC(=O)[C@@H]1CCCN1C(=O)[C@H](CC(N)=O)NC(=O)[C@@H](N)CC(=O)O)[C@@H](C)CC)[C@@H](C)O)[C@@H](C)O)C(=O)N[C@H](C(=O)N[C@@H](Cc1ccccc1)C(=O)N[C@@H](C)C(=O)N[C@@H](CO)C(=O)N[C@H](C(N)=O)C(C)C)[C@@H](C)CC [compound 182] (H-DNPSLSIDLPFQLLRTLLELARTQSQRERAEQNAIIFASV-NH2; N-terminus assumed) | 89.7% | 91.4% | 409 nM | 7.21 nM
